The target in data set [1] is PIM2 (Homo sapiens, UniProt Q9P1W9). Nature of the data set: KINOMEscan Max. Type of data set: binding. Details: DNA tag (qPCR read-out); purchased Ambit Kinomescan. As for the experimental part: (§1) Kinase panel profiling was performed at Ambit Kinomescan (http://www.ambitbio.com/technology/) using the “KINOMEscan™ Max” assay platform, a high-throughput method for screening small molecule compounds against large numbers of human kinases. KINOMEscan™ is based on a competition binding assay that quantitatively measures the ability of a compound to compete with an immobilized, active-site directed ligand. The assay is performed by combining three components: DNA-tagged kinase; immobilized ligand; and a test compound. The ability of the test compound to compete with the immobilized ligand is measured via quantitative PCR of the DNA tag. For a description of Ambit's assay protocol, see Fabian et al. A small molecule-kinase interaction map for clinical kinase inhibitors. Nat. Biotechnol. 23, 329-336 (2005).

The target of data set [2] is PIM3 (Homo sapiens, UniProt Q86V86). As to the kind of experiment: KINOMEscan Max. Type of data set: binding. Details: DNA tag (qPCR read-out); purchased Ambit Kinomescan. How it is done:
as §1

Data set [3] deals with FLT3(ITD). As to the kind of experiment: KINOMEscan Max. Type of data set: binding, human. The following applies: 1 μM. As for the experimental part: as §1
In data set [4] the test system is EGFR(S572-I759del). Nature of the data set: KINOMEscan Max. In kind it is binding, human. The following applies: 1 μM. How it is done:
as §1

The test system of data set [5] is EGFR(L747-S572del. P573S). As to the kind of experiment: KINOMEscan Max. Type of data set: binding, human. The note with it: 1 μM. How it is done:
as §1

In data set [6] the test system is ISR1. As to the kind of experiment: KINOMEscan Max. Type of data set: binding, human. The following applies: 1 μM. As for the experimental part:
as §1

For data set [7], the target named is T1, MAPKAPK5 (Homo sapiens, UniProt Q8IW41).
T1 construct: purchased Ambit Kinomescan (contract panel)
T1 sequence (Q8IW41 whole entry): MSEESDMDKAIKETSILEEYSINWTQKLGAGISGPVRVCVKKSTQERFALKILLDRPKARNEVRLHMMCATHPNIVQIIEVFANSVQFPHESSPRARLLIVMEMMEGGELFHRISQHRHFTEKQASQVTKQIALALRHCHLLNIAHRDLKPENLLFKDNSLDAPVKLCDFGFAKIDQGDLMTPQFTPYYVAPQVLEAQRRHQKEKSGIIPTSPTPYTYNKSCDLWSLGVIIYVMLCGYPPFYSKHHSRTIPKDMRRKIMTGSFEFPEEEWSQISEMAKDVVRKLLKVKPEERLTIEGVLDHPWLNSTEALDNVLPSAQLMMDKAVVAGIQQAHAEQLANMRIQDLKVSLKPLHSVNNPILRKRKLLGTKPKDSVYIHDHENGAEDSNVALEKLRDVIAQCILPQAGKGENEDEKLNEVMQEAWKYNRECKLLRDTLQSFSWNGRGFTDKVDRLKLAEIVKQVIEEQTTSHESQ
As to the kind of experiment: KINOMEscan Max. In kind it is binding. How it is done:
as §1

In data set [8] the target is T2, KIT(V559D) (Homo sapiens, UniProt P10721, V559D).
T2 construct: purchased Ambit Kinomescan (contract screening)
Nature of the data set: KINOMEscan Max. In kind it is binding. How it is done: as §1

In data set [9] the target is T3, BMPR1B (Homo sapiens, UniProt O00238).
T3 construct: DNA tag (qPCR label); purchased Ambit Kinomescan (contract screening)
As to the kind of experiment: KINOMEscan Max. In kind it is binding. How it is done:
as §1

Data set [10] deals with T4, PRKD2 (Homo sapiens, UniProt Q9BZL6).
T4 construct: DNA tag (qPCR read-out)
As to the kind of experiment: KINOMEscan Max. In kind it is binding. How it is done: as §1

In data set [11] the target is T5, CAMKK1 (Homo sapiens, UniProt Q8N5S9).
T5 construct: DNA tag (qPCR label); purchased Ambit Kinomescan (contract screening)
Nature of the data set: KINOMEscan Max. In kind it is binding. As for the experimental part:
as §1

Data set [12] concerns the target T6, PYK2 (Homo sapiens, UniProt Q14289).
T6 construct: DNA tag (qPCR read-out)
As to the kind of experiment: KINOMEscan Max. In kind it is binding. As for the experimental part:
as §1

The target of data set [13] is T7, SRPK2 (Homo sapiens, UniProt P78362).
T7 construct: DNA tag (qPCR read-out)
As to the kind of experiment: KINOMEscan Max. In kind it is binding. How it is done:
as §1

The target of data set [14] is T8, STK39 (Homo sapiens, UniProt Q9UEW8).
T8 construct: DNA tag (qPCR read-out)
Nature of the data set: KINOMEscan Max. Type of data set: binding. As for the experimental part: as §1

Data set [15] concerns the target T9, HPK1 (Homo sapiens, UniProt Q92918).
T9 construct: purchased Ambit Kinomescan (contract panel, KINOMEscan Max)
Nature of the data set: KINOMEscan Max. Type of data set: binding. How it is done: as §1

The target in data set [16] is T10, EPHA3 (Homo sapiens, UniProt P29320).
T10 construct: DNA tag (qPCR read-out)
Nature of the data set: KINOMEscan Max. In kind it is binding. As for the experimental part: as §1

The target of data set [17] is T11, CSK (Homo sapiens, UniProt P41240).
T11 construct: purchased Ambit (KINOMEscan Max panel service)
T11 sequence (P41240 whole entry): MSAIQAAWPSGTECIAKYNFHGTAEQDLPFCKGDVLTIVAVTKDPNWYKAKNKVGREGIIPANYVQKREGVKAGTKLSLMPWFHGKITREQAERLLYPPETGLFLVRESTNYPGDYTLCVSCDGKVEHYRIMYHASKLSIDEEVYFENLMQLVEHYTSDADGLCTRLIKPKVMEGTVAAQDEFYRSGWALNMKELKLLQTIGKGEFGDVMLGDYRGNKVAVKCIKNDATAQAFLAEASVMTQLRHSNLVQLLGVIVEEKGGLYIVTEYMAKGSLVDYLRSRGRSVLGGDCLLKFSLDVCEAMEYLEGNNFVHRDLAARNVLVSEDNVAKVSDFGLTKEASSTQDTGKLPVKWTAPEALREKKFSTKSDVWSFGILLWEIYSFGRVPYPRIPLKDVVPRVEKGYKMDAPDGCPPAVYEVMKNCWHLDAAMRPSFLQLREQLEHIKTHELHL
As to the kind of experiment: KINOMEscan Max. Type of data set: binding. The note with it: 1 μM. How it is done:
as §1

The target in data set [18] is T12, GSK3A (Homo sapiens, UniProt P49840).
T12 construct: purchased Ambit Kinomescan (contract panel, KINOMEscan Max)
T12 sequence (P49840 whole entry): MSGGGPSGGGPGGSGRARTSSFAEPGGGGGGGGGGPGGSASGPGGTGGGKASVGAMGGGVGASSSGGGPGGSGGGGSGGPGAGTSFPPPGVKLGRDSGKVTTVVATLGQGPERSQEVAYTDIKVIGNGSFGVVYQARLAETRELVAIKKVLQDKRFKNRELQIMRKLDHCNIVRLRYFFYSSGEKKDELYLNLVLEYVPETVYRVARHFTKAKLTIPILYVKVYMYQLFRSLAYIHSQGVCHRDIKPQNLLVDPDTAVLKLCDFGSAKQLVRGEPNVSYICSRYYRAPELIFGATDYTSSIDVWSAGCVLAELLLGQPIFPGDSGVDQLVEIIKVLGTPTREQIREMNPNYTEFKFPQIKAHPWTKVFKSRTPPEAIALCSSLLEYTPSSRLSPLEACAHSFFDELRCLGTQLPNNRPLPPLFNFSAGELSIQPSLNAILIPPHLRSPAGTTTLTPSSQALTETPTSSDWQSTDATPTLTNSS
As to the kind of experiment: KINOMEscan Max. Type of data set: binding. As for the experimental part:
as §1

Data set [19] concerns the target MLK1 (Homo sapiens, UniProt P80192). Nature of the data set: KINOMEscan Max. In kind it is binding. As for the experimental part:
as §1

Data set [20] addresses T13, TTK (Homo sapiens, UniProt P33981).
T13 construct: purchased Ambit Kinomescan (contract screening service)
Nature of the data set: KINOMEscan Max. Type of data set: binding. How it is done:
as §1

Data set [21] addresses T14, RIPK1 (Homo sapiens, UniProt Q13546).
T14 construct: DNA tag (qPCR read-out)
Nature of the data set: KINOMEscan Max. Type of data set: binding. How it is done:
as §1

In data set [22] the target is T15, PKAC-alpha (Homo sapiens, UniProt P17612).
T15 construct: purchased Ambit (KINOMEscan Max service)
As to the kind of experiment: KINOMEscan Max. Type of data set: binding. As for the experimental part:
as §1

Data set [23] deals with ABL1(H396P)-phosphorylated (Homo sapiens, UniProt P00519, H396P). Nature of the data set: KINOMEscan Max. Type of data set: binding. How it is done: as §1
Data set [24] deals with T16, TSSK1B (Homo sapiens, UniProt Q9BXA7).
T16 construct: purchased Ambit Kinomescan (contract screening service)
Nature of the data set: KINOMEscan Max. In kind it is binding. As for the experimental part: as §1

Data set [25] addresses T17, ERN1 (Homo sapiens, UniProt O75460).
T17 construct: DNA tag (qPCR read-out)
As to the kind of experiment: KINOMEscan Max. In kind it is binding. As for the experimental part: as §1

Data set [26] deals with T18, STK36 (Homo sapiens, UniProt Q9NRP7).
T18 construct: DNA tag (qPCR read-out)
Nature of the data set: KINOMEscan Max. Type of data set: binding. As for the experimental part:
as §1

For data set [27], the target named is T19, PIK3C2B (Homo sapiens, UniProt O00750).
T19 construct: purchased Ambit Kinomescan (contract screening)
Nature of the data set: KINOMEscan Max. In kind it is binding. How it is done:
as §1

Data set [28] has as its target T20, KIT(D816H) (Homo sapiens, UniProt P10721, D816H).
T20 construct: purchased Ambit Kinomescan (contract screening)
As to the kind of experiment: KINOMEscan Max. Type of data set: binding. How it is done:
as §1

Data set [29] has as its target T21, FGFR3 (Homo sapiens, UniProt P22607).
T21 construct: purchased Ambit (KINOMEscan Max service)
As to the kind of experiment: KINOMEscan Max. Type of data set: binding. As for the experimental part:
as §1

Data set [30] deals with T22, CDKL3 (Homo sapiens, UniProt Q8IVW4).
T22 construct: purchased Ambit Kinomescan (contract screening)
As to the kind of experiment: KINOMEscan Max. In kind it is binding. How it is done: as §1

Data set [31] addresses TRKB (Homo sapiens, UniProt Q16620). As to the kind of experiment: KINOMEscan Max. Type of data set: binding. How it is done: as §1
For data set [32], the target named is T23, LIMK2 (Homo sapiens, UniProt P53671).
T23 construct: purchased Ambit Kinomescan (contract screening)
Nature of the data set: KINOMEscan Max. In kind it is binding. How it is done: as §1

Data set [33] deals with T24, ACVR2A (Homo sapiens, UniProt P27037).
T24 construct: DNA tag (qPCR label); purchased Ambit Kinomescan (contract screening)
T24 sequence (P27037 20-513): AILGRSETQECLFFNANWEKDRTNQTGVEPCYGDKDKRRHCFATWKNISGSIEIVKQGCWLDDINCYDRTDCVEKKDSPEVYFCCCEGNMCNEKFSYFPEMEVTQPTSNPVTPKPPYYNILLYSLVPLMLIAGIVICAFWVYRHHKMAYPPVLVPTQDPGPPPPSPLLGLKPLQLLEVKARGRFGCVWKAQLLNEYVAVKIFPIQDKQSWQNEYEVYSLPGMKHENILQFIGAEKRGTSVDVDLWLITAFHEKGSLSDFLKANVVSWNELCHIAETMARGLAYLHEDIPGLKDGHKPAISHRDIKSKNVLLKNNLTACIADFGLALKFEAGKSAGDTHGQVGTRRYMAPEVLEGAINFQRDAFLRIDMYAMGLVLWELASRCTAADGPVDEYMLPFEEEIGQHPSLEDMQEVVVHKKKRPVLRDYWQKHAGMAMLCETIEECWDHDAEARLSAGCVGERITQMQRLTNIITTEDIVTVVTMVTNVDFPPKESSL
Nature of the data set: KINOMEscan Max. Type of data set: binding. How it is done: as §1

Data set [34] deals with MKK7 (Homo sapiens, UniProt O14733). As to the kind of experiment: KINOMEscan Max. Type of data set: binding. The note with it: 1 μM. How it is done:
as §1

Structures are written as SMILES.

T9 sequence (Q92918 whole entry): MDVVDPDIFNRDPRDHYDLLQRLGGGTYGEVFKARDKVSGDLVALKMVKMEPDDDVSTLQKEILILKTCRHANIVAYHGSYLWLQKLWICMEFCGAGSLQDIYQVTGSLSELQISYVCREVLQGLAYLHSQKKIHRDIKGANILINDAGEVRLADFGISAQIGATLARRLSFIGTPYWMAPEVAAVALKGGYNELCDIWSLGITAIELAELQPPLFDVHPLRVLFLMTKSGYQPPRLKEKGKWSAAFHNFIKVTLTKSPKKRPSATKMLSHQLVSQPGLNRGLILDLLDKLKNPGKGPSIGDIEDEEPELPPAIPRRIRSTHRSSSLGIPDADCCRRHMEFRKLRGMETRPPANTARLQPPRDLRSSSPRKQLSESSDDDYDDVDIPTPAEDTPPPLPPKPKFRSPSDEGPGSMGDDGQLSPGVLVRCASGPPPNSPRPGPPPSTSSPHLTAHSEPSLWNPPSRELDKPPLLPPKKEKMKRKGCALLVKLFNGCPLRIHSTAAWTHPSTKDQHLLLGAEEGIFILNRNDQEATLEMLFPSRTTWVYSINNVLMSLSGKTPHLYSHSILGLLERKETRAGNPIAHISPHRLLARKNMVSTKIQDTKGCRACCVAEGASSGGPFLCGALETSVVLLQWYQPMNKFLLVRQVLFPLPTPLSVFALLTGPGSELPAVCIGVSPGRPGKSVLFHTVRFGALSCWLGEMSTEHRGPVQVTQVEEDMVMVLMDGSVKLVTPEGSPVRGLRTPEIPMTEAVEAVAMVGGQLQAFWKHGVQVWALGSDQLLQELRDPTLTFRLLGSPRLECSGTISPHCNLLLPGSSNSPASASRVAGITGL
T21 sequence (P22607 23-806): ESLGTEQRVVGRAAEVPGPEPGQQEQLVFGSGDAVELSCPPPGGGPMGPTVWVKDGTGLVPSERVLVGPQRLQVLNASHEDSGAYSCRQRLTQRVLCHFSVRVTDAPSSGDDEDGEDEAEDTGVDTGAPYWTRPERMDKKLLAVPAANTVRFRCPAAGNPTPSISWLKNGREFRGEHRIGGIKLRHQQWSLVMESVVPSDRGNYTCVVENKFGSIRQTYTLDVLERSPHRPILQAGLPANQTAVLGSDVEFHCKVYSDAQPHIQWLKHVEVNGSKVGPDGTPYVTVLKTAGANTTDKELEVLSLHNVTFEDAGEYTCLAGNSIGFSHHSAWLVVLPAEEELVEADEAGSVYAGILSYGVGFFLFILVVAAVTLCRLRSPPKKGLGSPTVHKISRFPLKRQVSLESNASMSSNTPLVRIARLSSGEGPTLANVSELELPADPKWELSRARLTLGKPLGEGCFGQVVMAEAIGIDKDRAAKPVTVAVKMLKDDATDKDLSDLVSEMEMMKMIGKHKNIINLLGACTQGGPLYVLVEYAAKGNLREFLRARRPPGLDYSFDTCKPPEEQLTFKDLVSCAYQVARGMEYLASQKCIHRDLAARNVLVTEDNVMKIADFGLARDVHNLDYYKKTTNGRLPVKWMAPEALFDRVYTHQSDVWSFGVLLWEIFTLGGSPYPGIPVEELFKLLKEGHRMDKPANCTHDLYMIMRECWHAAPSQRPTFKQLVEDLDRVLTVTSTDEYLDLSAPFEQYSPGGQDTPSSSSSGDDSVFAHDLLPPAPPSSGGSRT
MLK1, sequence (P80192 whole entry): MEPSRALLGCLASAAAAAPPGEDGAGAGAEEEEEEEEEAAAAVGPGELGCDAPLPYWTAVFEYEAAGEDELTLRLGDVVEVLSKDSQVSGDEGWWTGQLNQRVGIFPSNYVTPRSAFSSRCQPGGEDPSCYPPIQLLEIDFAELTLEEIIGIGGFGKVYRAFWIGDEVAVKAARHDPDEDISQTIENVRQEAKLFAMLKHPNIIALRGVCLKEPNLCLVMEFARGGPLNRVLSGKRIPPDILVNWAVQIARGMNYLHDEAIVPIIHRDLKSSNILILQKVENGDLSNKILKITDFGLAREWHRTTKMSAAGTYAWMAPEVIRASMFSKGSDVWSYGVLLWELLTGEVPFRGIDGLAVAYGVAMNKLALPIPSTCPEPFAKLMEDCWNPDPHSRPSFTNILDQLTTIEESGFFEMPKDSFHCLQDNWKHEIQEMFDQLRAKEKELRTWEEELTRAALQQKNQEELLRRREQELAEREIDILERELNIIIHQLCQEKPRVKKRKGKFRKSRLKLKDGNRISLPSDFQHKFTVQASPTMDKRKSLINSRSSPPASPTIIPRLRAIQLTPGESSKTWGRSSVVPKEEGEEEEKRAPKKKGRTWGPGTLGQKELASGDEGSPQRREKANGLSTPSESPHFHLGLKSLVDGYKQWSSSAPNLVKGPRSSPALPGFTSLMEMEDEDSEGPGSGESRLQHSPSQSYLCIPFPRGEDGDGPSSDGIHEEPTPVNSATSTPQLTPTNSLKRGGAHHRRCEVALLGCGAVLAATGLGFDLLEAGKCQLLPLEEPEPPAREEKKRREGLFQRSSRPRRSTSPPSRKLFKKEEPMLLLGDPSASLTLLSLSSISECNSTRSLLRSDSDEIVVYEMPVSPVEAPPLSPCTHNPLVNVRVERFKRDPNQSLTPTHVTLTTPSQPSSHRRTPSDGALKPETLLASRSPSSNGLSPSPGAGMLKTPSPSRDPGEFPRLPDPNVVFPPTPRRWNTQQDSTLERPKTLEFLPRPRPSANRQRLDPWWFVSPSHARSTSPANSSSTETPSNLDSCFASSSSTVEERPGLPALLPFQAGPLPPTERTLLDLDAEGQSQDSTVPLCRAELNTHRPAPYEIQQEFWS

For the compound `CN(C)c1nc2c(Br)c(Br)c(Br)c(Br)c2[nH]1` [DMAT, reference compound], the “Solubility [mM] in phosphate buffer pH 7.4” value is listed as below 0.01 mM.

With `NCCCNc1nc2c(Br)c(Br)c(Br)c(Br)c2[nH]1` [Compound 11, N-(3-aminopropyl)-4,5,6,7-tetrabromo-1H-benzo[d]imidazol-2-amine], the remaining binding at 1 µM in data set [1] worked out at 0.85%; in [2] it was 5.2%; in data set [7], 100%; in data set [8] it was 97%; in data set [9] it was 100%; in [10], 42%. The remaining binding at 1 µM is 100% in data set [11]; 100% in [12]; 100% in data set [13]; 100% in data set [14]; 100% in data set [15]; 89% in data set [16]. For the same compound, the remaining binding at 1 µM in data set [18] was 100%; in data set [19], 100%; in [20], 100%; in data set [21], 100%; in [22], 68%; in [23], 100%. Moreover, the remaining binding at 1 µM in data set [24] amounted to 100%; in [25], 91%; in data set [26], 100%; in [27] it was 96%; in data set [28] it was 97%; in [29] it was 84%. Further, the remaining binding at 1 µM in data set [30] stood at 98%; in [31], 92%; in [32] it was 96%; in [33], 100%. The “% binding” value stood at 35% in data set [3]; 99% in data set [4]; 86% in data set [5]; 81% in data set [6]; 100% in data set [17]; 100% in data set [34].

The record behind these values is patent US20110230481A2, “DERIVATIVES OF TETRABROMOBENZIMIDAZOLE, A PROCESS FOR THE PREPARATION THEREOF, A PHARMACEUTICAL COMPOSITION COMPRISING THE SAME, A METHOD OF USING THE SAME, A METHOD FOR MODULATING OR REGULATING SERINE/THREONINE KINASES, AND SERINE/THREONINE KINASES MODULATING AGENT” (SELVITA S.A., priority 2009, published 2011).
